# How the values were obtained:
# DNase I = assay: Stability in the presence of DNase I; format: in vitro ADME, human; conditions: 1 unit of DNase I, 5 minutes at 37° C.
# Procedure: FIGS. 7A and 7B. Stability of apMNKQ2. Chip Experion™ DNA 1K Analysis Kit (BioRad, USA) for analyzing the stability of apMNKQ2 with 1 unit, 0.5 units, and 0.25 units of DNase I (FIG. 7A). In FIG. 7B, the degradation of aptamer apMNKQ2 in human plasma at 0, 6, 16, 24, 48, and 72 hours is depicted.
# In the context of the present invention, the term “incubated” is understood to mean being subjected to the assay conditions, specifically to incubation in a buffer with 10 mM Tris HCl, pH 7.5, 2.5 mM MgCl2, and 0.1 mM CaCl2).
# In the context of the present invention, the term “1 unit of DNase I” is understood to mean the amount of DNase I which completely degrades 1 μg of DNA in 10 minutes at 37° C.
# In the context of the present invention, “DNase I” is understood to mean the deoxyribonuclease-I protein encoded by the human DNASE1 gene. […]
# The previously structured aptamer apMNKQ2 (1 μg) was incubated in the presence of 1 unit, 0.5 units, and 0.25 units of the enzyme DNase I (ThermoFisher Scientific, USA) in the buffer supplied by the company (10 mM Tris HCl, pH 7.5, 2.5 mM MgCl2, 0.1 mM CaCl2)) for 5 minutes at 37° C., and the reaction was then stopped by adding 1 μL of 50 mM EDTA (ThermoFisher Scientific, USA) and heating at 65° C. for 10 minutes. […] The samples were analyzed using an Experion™ DNA 1K Analysis Kit chip (BioRad, USA). […]
# MDA-MB-468 cells = assay: Apoptosis by annexin V/propidium iodide flow cytometry; format: cell-based, human; conditions: MDA-MB-468, working concentration 50 nM, 24 hours
# Procedure: (§1) FIGS. 10A-10C. Analysis of the effect of the aptamer on apoptosis with annexin V in breast cell lines. MCF7 (FIG. 10A), MDA-MB-231 (FIG. 10B), and MDA-MB-468 (FIG. 10C) cells were seeded in 6-well plates at a density of 2.5×10^5 cells/well and transfected at 24 hours with apMNKQ2 at the set working concentrations. After 24 hours, the cells were collected, fixed, and stained with annexin V-FITC and propidium iodide. Finally, they were analyzed by cytometry. The bars represent the mean±SEM of 3 independent experiments (*p<0.05, **p<0.01, and ***p<0.001).
# (§2) The assays were carried out by seeding 5×10^5 cells/well in 6-well plates and transfecting the cells 24 hours later. After 24 hours of transfection, the cells were collected and washed twice with PBS. They were then resuspended in a 1× binding buffer and left at a concentration of 1×10^6 cells/mL. Aliquots of 10^5 cells were separated from the preceding solution, as many as the number of treatments, and the annexin V and propidium iodide dyes were added to obtain: a double negative control (without labeling, living cells), a double positive for both types of labeling (late apoptotic cells and necrotic cells will be labeled), and cells labeled separately with annexin V and propidium iodide. They were incubated in darkness for 15 minutes at room temperature and brought to a final volume of 500 μL with a 1× binding buffer. Finally, the cells were passed through a flow cytometer (BD FACSCalibur™, BDBiosciences, USA) within a time no more than 1 hour after labeling. The data obtained was analyzed by means of the Flowing software 2.5.1 program.
# (§3) The translocation of the […] from the inner face of the plasma membrane of the cells to the outer face by translocases is a process characteristic of apoptotic cells. To study this process, assays with annexin V-fluorescein (FITC) were performed in three cell lines. This recombinant protein binds to the phosphatidylserine residues exposed on the outer face of the plasma membrane of apoptotic cells. Together with said recombinant protein, propidium iodide (IP), an impermeable DNA marker that only enters cells when the membrane is compromised, was also used. To perform these assays, the cells were transfected with apMNKQ2 and with the control aptamer AT at the working concentrations. At 24 hours, the cells were collected, fixed, and stained with annexin V-FITC and propidium iodide. Finally, the cells were analyzed by means of flow cytometry and differentiation was made between non-apoptotic cells (annexin V-FICT negative/IP negative), apoptotic cells (annexin V-FICT positive/IP negative), late apoptotic cells (annexin V-FICT positive/IP positive), and necrotic cells (annexin V-FITC negative/IP positive).
# MDA-MB-231 cells = assay: as above; format: cell-based, human; conditions: MDA-MB-231, working concentration 400 nM, 24 hours
# Procedure: as §1, §2, §3
# MCF7 cells = assay: as above; format: cell-based, human; conditions: MCF7, working concentration 150 nM, 24 hours
# Procedure: as §1, §2, §3
substance,measurement,setting,value
"5′TGGGGTGGGCGGGCGGGGGTGGGGGTGGT-3′ (DNA, backbone and methylation of C not given here; further chemistry not fully specified) [apMNKQ2]",stability,DNase I,100%
same,induction of apoptosis (annexin V-FITC/propidium iodide),MDA-MB-468 cells,greater and statistically significant
same,induction of apoptosis (annexin V-FITC/propidium iodide),MDA-MB-231 cells,capable of inducing apoptosis
same,induction of apoptosis (annexin V-FITC/propidium iodide),MCF7 cells,capable of inducing apoptosis
same,late apoptosis with respect to the control,MCF7 cells,statistically significant

# Reference: patent publication US12492403B2, “Aptamers and the use thereof in the treatment of cancer” (FUNDACIÓN PARA LA INVESTIGACIÓN BIOMÉDICA DEL HOSPITAL …, priority 2018, dated 2025)
